According to BindingDB's records for doi:10.1021/jm00055a010 (Salk Institute, 1993):

Molecular target: T1, Neuropeptide Y receptor type 1 (Homo sapiens, UniProt P25929)
T1 sequence (P25929 whole entry): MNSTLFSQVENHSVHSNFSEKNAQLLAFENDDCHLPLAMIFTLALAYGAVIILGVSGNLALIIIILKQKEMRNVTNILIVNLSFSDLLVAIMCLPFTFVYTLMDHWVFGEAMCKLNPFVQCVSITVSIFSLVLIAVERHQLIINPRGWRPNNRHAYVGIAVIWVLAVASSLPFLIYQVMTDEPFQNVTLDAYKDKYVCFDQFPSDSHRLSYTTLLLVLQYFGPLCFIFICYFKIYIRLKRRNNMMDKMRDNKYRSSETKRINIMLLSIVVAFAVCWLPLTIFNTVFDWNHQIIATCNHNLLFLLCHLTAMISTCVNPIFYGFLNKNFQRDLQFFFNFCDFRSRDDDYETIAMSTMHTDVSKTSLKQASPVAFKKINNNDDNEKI
Assay: Tested against neuropeptide Y1 receptors using SK-N-MC human neuroblastoma cells

- Ki: > 1000 nM
SMILES: CC[C@H](C)[C@H](NC(=O)[C@H](CC(C)C)NC(=O)[C@H](CC(N)=O)NC(=O)[C@@H](NC(=O)[C@H]1CNC(=O)CC[C@H](NC(=O)[C@@H](N)Cc2ccc(O)cc2)C(=O)N[C@@H](CO)C(=O)N[C@@H](CCCCN)C(=O)N2CCC[C@H]2C(=O)NCC(=O)N[C@@H](CCCN=C(N)N)C(=O)N[C@@H](Cc2c[nH]cn2)C(=O)N1)[C@@H](C)CC)C(=O)N[C@H](C(=O)N[C@@H](CCCN=C(N)N)C(=O)N[C@@H](CCC(N)=O)C(=O)N[C@@H](CCCN=C(N)N)C(=O)N[C@@H](Cc1ccc(O)cc1)C(N)=O)[C@@H](C)O
